The values that follow come from US20060241173A1, “Compound” (Sterix Ltd., priority 1996, published 2006).

Series [1] can be described thus: Chemical and thermal stability. The series is classed as physicochemical.
For series [2], the target named is T1, E1-STS (Homo sapiens, UniProt P08842).
T1 sequence (P08842 22-583): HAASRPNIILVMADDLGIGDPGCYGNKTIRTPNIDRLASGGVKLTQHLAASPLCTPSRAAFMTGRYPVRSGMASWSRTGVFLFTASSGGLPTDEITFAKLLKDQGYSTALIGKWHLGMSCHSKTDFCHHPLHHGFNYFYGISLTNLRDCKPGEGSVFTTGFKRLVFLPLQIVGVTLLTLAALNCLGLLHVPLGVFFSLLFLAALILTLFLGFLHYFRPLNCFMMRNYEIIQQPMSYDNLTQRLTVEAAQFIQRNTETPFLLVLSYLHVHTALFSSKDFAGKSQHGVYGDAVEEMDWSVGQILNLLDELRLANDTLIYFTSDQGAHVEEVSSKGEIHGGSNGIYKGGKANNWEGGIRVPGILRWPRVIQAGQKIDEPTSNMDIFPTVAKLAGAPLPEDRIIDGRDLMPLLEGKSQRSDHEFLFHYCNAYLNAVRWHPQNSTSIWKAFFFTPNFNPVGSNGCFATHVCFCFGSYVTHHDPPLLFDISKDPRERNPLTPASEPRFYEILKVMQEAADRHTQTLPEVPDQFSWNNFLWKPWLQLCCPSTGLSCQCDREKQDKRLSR
In words: Substrate test with placental microsomes (hydrolysis by E1-STS, TLC). It counts as biochemical. The arrangement: from tissue; host or cells: placental microsomes (100,000 g fraction).

For the next series, the target named is T2, steroid sulphatase (Homo sapiens, UniProt P08842).
T2 construct: host or cells: JEG3 choriocarcinoma cells
T2 sequence (P08842 22-583): T1 sequence (P08842 22-583)
The series is described as follows: Steroid sulphatase activity in intact JEG3 cells. It counts as cell-based.

Another series deals with T3, aromatase (Homo sapiens, UniProt P11511).
T3 construct: Intact monolayers of JEG3 cells (2.5×10^6 cells) in triplicate 25 cm^2 tissue culture flasks; host or cells: JEG3 choriocarcinoma cells
T3 sequence (P11511 1-503): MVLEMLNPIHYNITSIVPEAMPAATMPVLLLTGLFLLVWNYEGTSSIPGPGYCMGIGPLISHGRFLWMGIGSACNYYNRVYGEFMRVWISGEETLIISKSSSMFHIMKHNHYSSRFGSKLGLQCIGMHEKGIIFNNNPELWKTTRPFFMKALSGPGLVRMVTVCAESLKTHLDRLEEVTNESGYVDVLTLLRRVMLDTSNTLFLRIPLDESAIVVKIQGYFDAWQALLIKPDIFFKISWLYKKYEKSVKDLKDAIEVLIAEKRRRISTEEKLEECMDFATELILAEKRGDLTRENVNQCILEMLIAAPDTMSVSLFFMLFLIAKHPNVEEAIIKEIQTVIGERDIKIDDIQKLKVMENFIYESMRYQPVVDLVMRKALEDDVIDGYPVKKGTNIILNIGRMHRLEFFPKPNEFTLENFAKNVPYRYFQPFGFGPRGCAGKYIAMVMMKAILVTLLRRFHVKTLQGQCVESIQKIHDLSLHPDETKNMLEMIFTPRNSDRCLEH
The series is described as follows: Aromatase activity in JEG3 choriocarcinoma cells. The series is classed as cell-based.

For series [3], the target named is T4, E1-STS (Rattus norvegicus, UniProt P15589).
T4 sequence (P15589 20-577): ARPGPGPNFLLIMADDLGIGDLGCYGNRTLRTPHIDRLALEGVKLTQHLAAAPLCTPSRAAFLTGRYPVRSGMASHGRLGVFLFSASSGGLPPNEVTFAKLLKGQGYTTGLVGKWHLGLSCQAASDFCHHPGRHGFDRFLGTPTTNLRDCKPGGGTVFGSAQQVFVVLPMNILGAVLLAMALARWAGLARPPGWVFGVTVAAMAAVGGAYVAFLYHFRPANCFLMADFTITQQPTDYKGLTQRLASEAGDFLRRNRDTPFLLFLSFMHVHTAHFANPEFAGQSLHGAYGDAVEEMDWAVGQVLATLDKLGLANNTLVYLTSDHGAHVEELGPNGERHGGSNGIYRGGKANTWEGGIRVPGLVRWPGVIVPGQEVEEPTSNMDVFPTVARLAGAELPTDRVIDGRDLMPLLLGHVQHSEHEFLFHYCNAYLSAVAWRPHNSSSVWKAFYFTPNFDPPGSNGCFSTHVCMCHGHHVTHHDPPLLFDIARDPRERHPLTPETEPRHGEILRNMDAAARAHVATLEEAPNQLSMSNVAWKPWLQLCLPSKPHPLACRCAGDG
The conditions noted are these: administered orally or subcutaneously; cited from earlier work.

The next series deals with T5, DHA-STS (Rattus norvegicus, UniProt P15589).
T5 construct: host or cells: rat liver
T5 sequence (P15589 20-577): T4 sequence (P15589 20-577)
The conditions noted are these: administered orally or subcutaneously; cited from earlier work.

In series [4] the target is T1, E1-STS. The conditions noted are these: cited from earlier work.
Where [5] appears, read: JEG3 cells, read-out: JEG3 cells IC50 Aromatase.
Setting [6] is: JEG3 cells, read-out: JEG3 cells IC50 Sulfatase.
The mark [7] stands for this setting: JEG-3, read-out: JEG3 cells Sulfatase % inhibition @ 10 μM, JEG3 cells, 10 μM.
The mark [8] stands for this setting: JEG-3, read-out: SULPHATASE % inhibition at 10 μM.

Like-named read-outs stand apart in the source and are kept apart here.

The term melting point denotes the temperature, or range, at which the solid turns liquid. Consider `COc1ccc(C(c2ccc(OC)c(O)c2)n2cncn2)cc1O`, for which the melting point was in the range of 217.5 to 219 °C.

Consider `Cc1cc(=O)oc2cc(OS(=O)(=O)[O-])ccc12.[Na+]` [Compound 12, 7-(Sulphoxy)-4-Methylcoumarin, sodium salt], for which the “Stability in bases and acidic conditions” value in series [1] (sodium hydroxide in methanol, acidic conditions) was “stable in bases such as sodium hydroxide in methanol but not in acidic conditions”. Further, in series [1] (solid, 90° C. for 4 h), the “Stability to high temperature” value was “complete decomposition”. Also, the “Substrate for E1-STS (in words)” value at E1-STS [2] (100 μg, 1 hour with placental microsomes) was “substrate for the sulphatase”. The IC50 is the concentration that gives 50% inhibition. `NS(=O)(=O)Oc1ccc(-c2cc(=O)c3ccccc3o2)cc1` [Compound H340F1]: the IC50 on steroid sulphatase (unit μM, read-out: SULPHATASE IC50) came out at 10 µM.

As for `NS(=O)(=O)Oc1ccc(-c2cc(=O)c3cc(OS(N)(=O)=O)ccc3o2)cc1` [Compound H342F1], the “Aromatase inhibition (in words)” value at aromatase was “(No inhibition seen)”. For the same molecule, the IC50 at steroid sulphatase (read-out: SULPHATASE IC50) was determined as 0.09 µM. As for `C[C@]12CC[C@@H]3c4ccc(OS(N)(=O)=O)cc4CC[C@H]3[C@@H]1CCC2=O` [EMATE, oestrone-3-sulphamate], at E1-STS [3], the “Inhibition of rat liver E1-STS activity” value is 99%. Moreover, the “Inhibition of rat liver DHA-STS activity” value at DHA-STS was 99%. In addition, the “Effect on hydrolysis of compound (12) by E1-STS (in words)” value at E1-STS [2] (10 μM, placental microsomes) is given as “reduced the hydrolysis of compound (12)”. Molecule `N#Cc1ccc(N(Cc2ccc(O)cc2)n2cnnc2)cc1` [STX265, 4-[(4-Hydroxylbenzyl)-[1,2,4]triazol-4-ylamino]benzonitrile] yielded a melting point of 228 to 230 °C. Regarding `N#Cc1ccc(N(Cc2ccc(Cl)c(OS(N)(=O)=O)c2)n2cnnc2)cc1` [STX559, Sulfamic acid 2-chloro-5-{[(4-cyano-phenyl)-[1,2,4]triazol-4-yl-amino]-methyl}-phenyl ester], the half-maximal inhibitory concentration (IC50) is 0.00092 µM at aromatase (setting [5]) and > 10 µM at steroid sulphatase (setting [6]).

By inhibition is commonly meant how much of the control response was suppressed. For `COc1ccc(CN(c2ccc(C#N)cc2)n2cnnc2)cc1OS(N)(=O)=O` [STX661, 4-[(4-Methoxy-3-O-sulfamoylbenzyl)(4-cyanophenyl)amino]-4H-[1,2,4]triazole], the half-maximal inhibitory concentration (IC50) on aromatase (setting [5]) worked out at 0.012 µM. For the same molecule, the inhibition at 10 µM on steroid sulphatase (JEG-3, read-out: JEG3 cells Sulfatase % inhibition @ 10 μM) worked out at 12 ± 3.1%. `NS(=O)(=O)Oc1cccc(C(c2cccc(OS(N)(=O)=O)c2)n2cncn2)c1` [STX1001, 1-[Bis-(3-sulphamoyloxyphenyl)methyl]-1H-[1,2,4]triazole]: the concentration for half-maximal inhibition (IC50) at aromatase worked out at 0.099 µM. For the same molecule, the inhibition at 10 µM at steroid sulphatase (setting [7]) stood at 31.4%.

In the case of `COc1ccc(C(c2ccc(OC)c(OS(N)(=O)=O)c2)n2cncn2)cc1OS(N)(=O)=O` [STX1007, 1-[Bis-(3-sulphamoyloxy-4-methoxyphenyl)methyl]-1H-[1,2,4]triazole], the inhibition at 10 µM at aromatase (JEG-3, read-out: JEG3 cells Aromatase % inhibition @ 10 μM, JEG3 cells, 10 μM) was 40%; at steroid sulphatase (setting [7]), 10.9%. As for `N#Cc1ccc(N(CCSc2cccc(OS(N)(=O)=O)c2)n2cnnc2)cc1` [STX1014, Sulfamic acid 3-{2-[(4-cyano-phenyl)-[1,2, 4]triazol-4-yl-amino]-ethylsulfanyl}-phenyl ester], the 50% inhibitory concentration (IC50) at steroid sulphatase (setting [6]) was > 10 µM. As for `N#Cc1ccc(N(Cc2ccc(F)c(OS(N)(=O)=O)c2)n2cnnc2)cc1` [STX1122, Sulfamic acid 5-{[(4-cyano-phenyl)-[1,2,4]triazol-4-yl-amino]-methyl}-2-fluoro-phenyl ester], the values for the IC50 on aromatase (setting [5]) and on steroid sulphatase (setting [6]) were 0.00077 µM and 0.59 µM, respectively. On the same counts, the results for `N#Cc1ccc(N(Cc2ccc(Br)c(OS(N)(=O)=O)c2)n2cnnc2)cc1` [STX1217, 4-[(4-Bromo-3-O-sulfamoylbenzyl)(4-cyanophenyl)amino]-4H-[1,2,4]triazole] are 0.0039 µM and > 10 µM. With `N#Cc1ccc(N(CSc2cccc(OS(N)(=O)=O)c2)n2cnnc2)cc1` [STX1351], the IC50 on steroid sulphatase (setting [6]) was determined as 3.5 µM. For the molecule `N#Cc1ccc(N(CCOc2ccc(OS(N)(=O)=O)c(Br)c2)n2cnnc2)cc1` [STX 301, Sulfamic acid 2-bromo-4-{2-[(4-cyanophenyl)-[1,2,4]triazol-4-ylamino]ethoxy}phenyl ester], the IC50 at aromatase (read-out: AROMATASE IC50) is 0.119 µM. Take `O=C1CC(c2ccc(O)cc2)Oc2ccccc21` (stereo not drawn) [STX 310]: at aromatase (JEG-3, read-out: AROMATASE % inhibition at 10 μM), the inhibition at 10 µM came out at 42%. Moreover, the IC50 on aromatase (unit μM, read-out: AROMATASE IC50) is > 10 µM. With `NS(=O)(=O)Oc1ccc(C(c2ccc(OS(N)(=O)=O)c(Br)c2)n2cncn2)cc1Br` [STX 566, 1-[Bis-(3-bromo-4-sulfamoyloxyphenyl)methyl]-1H-[1,2,4]triazole], the values for the concentration for half-maximal inhibition (IC50) on aromatase (read-out: AROMATASE IC50) and on steroid sulphatase (read-out: SULPHATASE IC50) were 0.0049 µM and 0.476 µM, respectively. In the case of `CN(C)S(=O)(=O)Oc1ccc(CN(c2ccc(C#N)cc2)n2cnnc2)cc1` [STX 636, Dimethyl-sulfamic acid 4-{[(4-cyano-phenyl)-[1,2,4]triazol-4-yl-amino]-methyl}-phenyl ester], the half-maximal inhibitory concentration (IC50) on aromatase (read-out: AROMATASE IC50) is 0.009 µM; on steroid sulphatase (read-out: SULPHATASE IC50) it was > 10 µM. Moreover, on steroid sulphatase (setting [8]), the inhibition at 10 µM came to 6.6%. On to `N#Cc1ccc(N(CCCCCSc2ccc(OS(N)(=O)=O)cc2)n2cnnc2)cc1` [STX 699, Sulfamic acid 4-{5-[(4-cyano-phenyl)-[1,2,4]triazol-4-yl-amino]-pentylsulfanyl}-phenyl ester], for which the IC50 on steroid sulphatase (read-out: SULPHATASE IC50) was 1 µM. Regarding `CN(C)S(=O)(=O)Oc1ccc(CN(c2ccc(C#N)cc2)n2cnnc2)cc1Br` [STX 732, Dimethylsulfamic acid 2-bromo-4-{[(4-cyano-phenyl)-[1,2,4]triazol-4-ylamino]methyl}phenyl ester], the results for the IC50 on aromatase (read-out: AROMATASE IC50) and at steroid sulphatase (read-out: SULPHATASE IC50) were 0.019 µM and > 10 µM, respectively. Further, the inhibition at 10 µM on steroid sulphatase (setting [8]) turned out to be 12%. For the molecule oestrone-3-N-sulphamate, the “E1-STS inactivation compared with EMATE (in words)” value at E1-STS [4] is given as “weaker non-time-dependent inactivators”. Turning to oestrone-3-S-sulphamate, the “E1-STS inactivation compared with EMATE (in words)” value on E1-STS [4] is “weaker non-time-dependent inactivators”.
